From patent US20220267260A1, “COMPOUNDS CONTAINING A SULFONIC GROUP AS KAT INHIBITORS” (Epizyme, Inc., priority 2016, published 2022)
Where a name gives a salt, the structure may show the parent alone.

Columns and labels:
KAT6A = biological target: T1, KAT6A (Homo sapiens, UniProt Q92794); assay: KAT6A enzyme inhibition assay (SAMDI mass spectrometry); format: biochemical; conditions: His-TEV-KAT6A 501-784 enzyme construct
T1 construct: His-TEV tag (N, cleaved yes); made in house

KAT5 = biological target: T2, KAT5 (Homo sapiens, UniProt Q92993); assay: KAT5 enzyme inhibition assay (SAMDI mass spectrometry); format: biochemical; conditions: His-TEV-FL KAT5-Flag enzyme construct
T2 construct: His-TEV tag (N, cleaved yes); made in house
T2 sequence (Q92993 with tags, fused parts or gaps): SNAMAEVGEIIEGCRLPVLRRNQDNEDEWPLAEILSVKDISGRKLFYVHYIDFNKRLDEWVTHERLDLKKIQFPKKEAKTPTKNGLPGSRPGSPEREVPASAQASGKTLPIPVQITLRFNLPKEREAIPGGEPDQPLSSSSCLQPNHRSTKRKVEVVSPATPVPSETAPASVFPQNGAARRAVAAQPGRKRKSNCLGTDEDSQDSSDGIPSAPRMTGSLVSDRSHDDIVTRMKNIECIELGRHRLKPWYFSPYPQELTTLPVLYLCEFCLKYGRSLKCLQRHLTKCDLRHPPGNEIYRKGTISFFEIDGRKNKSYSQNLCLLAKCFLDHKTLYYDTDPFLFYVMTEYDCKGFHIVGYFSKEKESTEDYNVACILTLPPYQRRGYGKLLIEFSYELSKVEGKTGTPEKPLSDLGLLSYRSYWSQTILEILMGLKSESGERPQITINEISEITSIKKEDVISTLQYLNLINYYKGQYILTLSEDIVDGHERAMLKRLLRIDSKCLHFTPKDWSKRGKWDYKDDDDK

T1 sequence (Q92794 with tags, fused parts or gaps): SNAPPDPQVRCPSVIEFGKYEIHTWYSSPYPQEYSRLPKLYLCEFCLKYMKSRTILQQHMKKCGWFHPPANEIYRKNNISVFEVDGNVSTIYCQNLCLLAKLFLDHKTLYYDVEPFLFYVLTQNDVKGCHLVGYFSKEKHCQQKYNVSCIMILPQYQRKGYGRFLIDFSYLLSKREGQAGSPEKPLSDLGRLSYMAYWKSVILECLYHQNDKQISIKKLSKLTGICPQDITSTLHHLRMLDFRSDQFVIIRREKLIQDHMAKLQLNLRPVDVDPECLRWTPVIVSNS

Row | SMILES | IC50 (KAT6A) [µM] | IC50 (KAT5) [µM]
1 | CCC(=O)N1CC(S(=O)(=O)NNC(=O)c2cc(-c3ccccc3)cc(C)c2F)C1 [Compound I-113] | 10 to 50 | 50 to 100
2 | Cc1cc(-c2ccccc2)cc(C(=O)NNS(=O)(=O)C2CN(C(=O)C(C)C)C2)c1F [Compound I-114] | 10 to 50 | > 100
3 | COCCC(=O)N1CC(S(=O)(=O)NNC(=O)c2cc(-c3ccccc3)cc(C)c2F)C1 [Compound I-115] | 10 to 50 | 50 to 100
4 | O=C(NNS(=O)(=O)C1CCCCC1)c1ccccc1F [Compound I-116] | > 100 | > 100
5 | Cc1c(-c2ccccc2)ccc(F)c1C(=O)NNS(=O)(=O)C1CCCCC1 [Compound I-117] | 50 to 100 | > 100
6 | Cc1cc(-c2ccccc2)cc(C(=O)NNS(=O)(=O)C2CCN(C(=O)OC(C)(C)C)C2)c1F (stereo not drawn) [Compound I-118, tert-Butyl 3-((2-(4-fluoro-5-methyl-[1,1′-biphenyl]-3-carbonyl)hydrazinyl)sulfonyl)pyrrolidine-1-carboxylate] | ≤ 10 | 10 to 50
7 | Cc1cc(-c2ccccc2)cc(C(=O)NNS(=O)(=O)C2CN(C(=O)OC(C)(C)C)C2)c1F [Compound I-119, tert-Butyl 3-((2-(4-fluoro-5-methyl-[1,1′-biphenyl]-3-carbonyl)hydrazinyl)sulfonyl)azetidine-1-carboxylate] | 10 to 50 | 10 to 50
8 | Cc1cc(-c2ccccc2)cc(C(=O)NNS(=O)(=O)C2CNC2)c1F [Compound I-120, N′-(4-Fluoro-5-methyl-[1,1′-biphenyl]-3-carbonyl)azetidine-3-sulfonohydrazide hydrochloride] | > 100 | > 100
9 | Cc1cc(-c2ccccc2)cc(C(=O)NNS(=O)(=O)C2CN(C(=O)OCc3ccccc3)C2)c1F [Compound I-121, Benzyl 3-((2-(4-fluoro-5-methyl-[1,1′-biphenyl]-3-carbonyl)hydrazinyl)sulfonyl)azetidine-1-carboxylate] | 10 to 50 | 10 to 50
10 | Cc1nn(Cc2ccccc2)cc1C(=O)NNS(=O)(=O)c1ccccc1 [Compound I-122] | > 100 | > 100
11 | Cc1cc(F)c(-c2ccccc2)cc1C(=O)NNS(=O)(=O)c1ccccc1 [Compound I-123] | > 100 | > 100
12 | Cc1nn(-c2ccccc2)cc1C(=O)NNS(=O)(=O)c1ccccc1 [Compound I-124] | > 100 | > 100
13 | Cc1cccc(-c2ccc(F)c(C(=O)NNS(=O)(=O)c3ccccc3)c2)c1 [Compound I-125] | ≤ 10 | 10 to 50
14 | Cc1cc(C(=O)NNS(=O)(=O)c2ccccc2)cc(-c2ccccc2)c1F [Compound I-126] | ≤ 10 | 50 to 100
15 | O=C(NNS(=O)(=O)c1cccc(Cl)c1)c1ccccc1F [Compound I-127] | 10 to 50 | > 100
16 | Cc1c(-c2ccccc2)ccc(F)c1C(=O)NNS(=O)(=O)c1cccc(Cl)c1 [Compound I-128] | 10 to 50 | 50 to 100
17 | COc1cc(-c2ccccc2)cc(C(=O)NNS(=O)(=O)c2ccccc2)c1F [Compound I-129] | ≤ 10 | 10 to 50
18 | O=C(NNS(=O)(=O)c1ccccc1Cl)c1ccccc1F [Compound I-130] | > 100 | > 100
19 | Cc1cccc(S(=O)(=O)NNC(=O)c2cc(-c3ccccc3)ccc2F)c1 [Compound I-131] | ≤ 10 | > 100
20 | O=C(NNS(=O)(=O)c1ccccc1)c1c(F)ccc(-c2ccccn2)c1F [Compound I-132] | ≤ 10 | 50 to 100
21 | O=C(NN[S+]([O-])c1ccccc1)c1ccccc1F (stereo not drawn) [Compound I-133] | > 100 | > 100
22 | O=C(NNC(c1ccccc1)C(F)(F)F)c1ccccc1F (stereo not drawn) [Compound I-134] | > 100 | > 100

Row | SMILES | IC50 (KAT6A) [µM] | IC50 (KAT5) [µM]
23 | Cc1cccc(F)c1C(=O)NNS(=O)(=O)c1ccccc1 [Compound I-135] | > 100 | > 100
24 | O=C(NNS(=O)(=O)c1ccccc1)c1c(F)c(Cl)cc(-c2ccccc2)c1F [Compound I-136] | ≤ 10 | ≤ 10
25 | Cc1cc(-c2ccccc2)cc(C(=O)NNS(=O)(=O)C2CC3CCC(C2)N3C(=O)OC(C)(C)C)c1F (stereo not drawn) [Compound I-137] | 10 to 50 | 10 to 50
26 | O=C(NNC(=O)c1ccccc1F)c1ccccc1 [Compound I-138] | > 100 | > 100
27 | Cc1ccc(-c2ccccc2)c(F)c1C(=O)NNS(=O)(=O)c1ccccc1 [Compound I-139] | > 100 | > 100
28 | Cc1cc(-c2ccccc2)cc(C(=O)NNS(=O)(=O)CC2CCNCC2)c1F [Compound I-141] | > 100 | 50 to 100
29 | Cc1cc(C(=O)NNS(=O)(=O)c2ccccc2)c(F)c(-c2ccccc2)c1 [Compound I-142] | ≤ 10 | 10 to 50
30 | O=C(NNS(=O)(=O)c1ccc(Cl)cc1)c1ccccc1F [Compound I-143] | 10 to 50 | > 100
31 | O=C(NNS(=O)(=O)c1ccccc1)c1cccc(-c2ccccc2)c1 [Compound I-144] | ≤ 10 | > 100
32 | COc1ccccc1C(=O)NNS(=O)(=O)c1ccccc1 [Compound I-145] | > 100 | > 100
33 | Cc1cc(-c2ccccc2)cc(C(=O)NNS(=O)(=O)c2ccc(CO)cc2)c1F [Compound I-147] | ≤ 10 | 10 to 50
34 | Cc1ccccc1C(=O)NNS(=O)(=O)c1ccccc1 [Compound I-148] | > 100 | > 100
35 | O=C(NNS(=O)(=O)c1ccccc1)c1ccccc1Cl [Compound I-149] | > 100 | > 100
36 | Cc1cc(-c2ccccc2)cc(C(=O)Nc2nnc3n2CCCC3)c1F [Compound I-150] | > 100 | > 100
37 | Cc1cc(-c2ccccc2)cc(C(=O)NS(=O)(=O)N2CCCC2)c1F [Compound I-151] | > 100 | > 100
38 | O=C(NNS(=O)(=O)c1cccc(Cl)c1)c1cc(-c2ccccc2)ccc1F [Compound I-152] | ≤ 10 | 10 to 50
39 | O=C(NNS(=O)(=O)c1ccccc1)c1cc(Cl)ccc1F [Compound I-153] | ≤ 10 | 10 to 50
40 | O=C(NNS(=O)(=O)c1cccc(F)c1)c1cc(-c2ccccc2)ccc1F [Compound I-154] | ≤ 10 | 10 to 50
41 | Cc1cccc(S(=O)(=O)NNC(=O)c2c(F)ccc(-c3ccccc3)c2F)c1 [Compound I-155] | ≤ 10 | 10 to 50
42 | O=C(NNS(=O)(=O)c1ccc(Cl)cc1)c1c(F)ccc(-c2ccccc2)c1F [Compound I-156] | ≤ 10 | 10 to 50
43 | O=C(NNS(=O)(=O)c1ccccc1)c1c[nH]c2ccccc12 [Compound I-158] | > 100 | > 100
44 | O=C(NNS(=O)(=O)c1ccccc1)c1ccccc1 [Compound I-159] | 50 to 100 | > 100

Row | SMILES | IC50 (KAT6A) [µM] | IC50 (KAT5) [µM]
45 | O=C(NNS(=O)(=O)c1ccccc1)c1cccc(Cl)c1F [Compound I-160] | ≤ 10 | 10 to 50
46 | O=C(NNS(=O)(=O)c1cccc(Cl)c1)c1c(F)ccc(-c2ccccc2)c1F [Compound I-161] | ≤ 10 | 10 to 50
47 | Cc1cc(-c2ccccc2)cc(C(=O)NNS(=O)(=O)c2ccc(=O)[nH]c2)c1F [Compound I-162] | ≤ 10 | > 100
48 | O=C(NNS(=O)(=O)c1ccc2ccccc2c1)c1c(F)ccc(-c2ccccc2)c1F [Compound I-164] | ≤ 10 | ≤ 10
49 | O=C(NNS(=O)(=O)c1ccccc1)c1ccccc1F [Compound I-165] | 10 to 50 | > 100
50 | O=C(NNS(=O)(=O)c1ccccc1)c1c(F)cccc1F [Compound I-166] | 10 to 50 | > 100
51 | O=C(NNS(=O)(=O)c1ccccc1)c1c(F)ccc(-c2cn[nH]c2)c1F [Compound I-167] | 10 to 50 | 50 to 100
52 | Cc1cc(-c2ccccc2)cc(C(=O)NS(=O)(=O)c2ccccc2)c1F [Compound I-168] | 50 to 100 | 50 to 100
53 | O=C(NNCc1ccccc1)c1ccccc1F [Compound I-169] | > 100 | > 100
54 | O=C(NNS(=O)(=O)c1cccc(Cl)c1)c1c(F)ccc(-c2ncc[nH]2)c1F [Compound I-170] | 50 to 100 | > 100
55 | Cc1c(-c2ccccc2)ccc(F)c1C(=O)NNC(=O)c1ccccc1 [Compound I-171] | > 100 | > 100
56 | Cn1ccnc1-c1ccc(F)c(C(=O)NNS(=O)(=O)c2ccccc2)c1F [Compound I-172] | 10 to 50 | > 100
57 | Cc1cc(-c2ccccc2)cc(C(=O)NCc2cc[nH]n2)c1F [Compound I-173] | > 100 | > 100
58 | COc1ccccc1S(=O)(=O)NNC(=O)c1ccccc1F [Compound I-174] | > 100 | > 100
59 | Cc1cc(-c2ccccc2)cc(C(=O)NNS(=O)(=O)c2cccnc2)c1F [Compound I-175] | ≤ 10 | ≤ 10
60 | COc1ccccc1S(=O)(=O)NNC(=O)c1cc(-c2ccccc2)cc(C)c1F [Compound I-176] | ≤ 10 | ≤ 10
61 | COc1cccc(S(=O)(=O)NNC(=O)c2ccccc2F)c1 [Compound I-177] | 10 to 50 | > 100
62 | Cc1cc(-c2ccccc2)cc(C(=O)NCC(O)c2ccccc2)c1F (stereo not drawn) [Compound I-178] | > 100 | > 100
63 | O=C(NNS(=O)(=O)c1ccccc1)c1cccc2ccccc12 [Compound I-180] | > 100 | > 100
64 | Cc1cccc(C(=O)NNS(=O)(=O)c2ccccc2)c1F [Compound I-183] | ≤ 10 | 10 to 50
65 | Cc1cc(-c2ccccc2)cc(C(=O)NNS(=O)(=O)C2CC3CCC(C2)N3)c1F (stereo not drawn) [Compound I-184] | > 100 | > 100
66 | O=C(NS(=O)(=O)c1ccccc1)c1c[nH]c2ccccc12 [Compound I-185] | > 100 | > 100
